In PubChem BioAssay AID248 (DTP/NCI, 2004) one finds T/C data, which are given here for nine compounds.

In this experiment the test system is L1210 leukemia ip in BDF1 mice, survival T/C. Kind of experiment: NCI In Vivo Anticancer Drug Screen. Data for tumor model L1210 Leukemia (intraperitoneal) in B6D2F1 (BDF1) mice. The conditions noted are these: endpoint: mean survival time, higher = longer survival. The gist of the method:
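Mice bearing the transplanted tumor received compound or vehicle. Survival of the treated group was divided by that of the vehicle-treated control group to give the ratio.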

[1] abbreviates: dose: 100.0 mg/kg/injection, schedule: Q04DX003 (ip), vehicle: Klucel (hydroxypropylcellulose) (HPC).
The mark [2] stands for this setting: dose: 200.0 mg/kg/injection, schedule: Q04DX003 (ip), vehicle: Klucel (hydroxypropylcellulose) (HPC).
[3] abbreviates: dose: 100.0 mg/kg/injection, schedule: Q04DX002 (ip), vehicle: saline with Tween-80.
The mark [4] stands for this setting: dose: 200.0 mg/kg/injection, schedule: Q04DX002 (ip), vehicle: saline with Tween-80.
Setting [5] is: dose: 400.0 mg/kg/injection, schedule: Q04DX002 (ip), vehicle: saline with Tween-80.
The mark [6] stands for this setting: dose: 100.0 mg/kg/injection, schedule: Q04DX003 (ip), vehicle: saline.
[7] abbreviates: dose: 200.0 mg/kg/injection, schedule: Q04DX003 (ip), vehicle: saline.
[8] abbreviates: dose: 400.0 mg/kg/injection, schedule: Q04DX003 (ip), vehicle: saline.

Where “and” joins values, the source holds several entries; their conditions need not be identical. Equal entries are not always repeated. Toxic doses and inconclusive results are not listed.

`C1OC1CN1CCN(CC2CO2)CC1` (centres undefined): the T/C by setting is: (dose: 1.2 mg/kg/injection, schedule: Q01DX009 (ip), vehicle: saline) 101 % of control; (dose: 1.8 mg/kg/injection, schedule: Q01DX009 (ip), vehicle: saline) 117 % of control; (dose: 2.0 mg/kg/injection, schedule: Q03HX008 (ip), vehicle: saline) 117 % of control; (dose: 2.0 mg/kg/injection, schedule: Q03HX016 (ip), vehicle: saline) 102 % of control; (dose: 2.0 mg/kg/injection, schedule: Q03HX024 (ip), vehicle: saline) 121 % of control; (dose: 3.5 mg/kg/injection, schedule: Q01DX009 (ip), vehicle: saline) 118 % of control. Moreover, the T/C (dose: 4.0 mg/kg/injection, schedule: Q03HX008 (ip), vehicle: saline) was 114 % of control; the T/C (dose: 4.0 mg/kg/injection, schedule: Q03HX016 (ip), vehicle: saline) is 114 % of control; the T/C (dose: 6.25 mg/kg/injection, schedule: Q01DX009 (ip), vehicle: saline) was 121 % of control; the T/C (dose: 8.0 mg/kg/injection, schedule: Q01DX009 (sc), vehicle: saline) is 101 % of control; the T/C (dose: 8.0 mg/kg/injection, schedule: Q03HX008 (ip), vehicle: saline) is 114 % of control; the T/C (dose: 8.0 mg/kg/injection, schedule: Q03HX016 (ip), vehicle: saline) was 94 % of control. Also, the T/C (dose: 12.5 mg/kg/injection, schedule: Q01DX009 (ip), vehicle: saline) is 164 % of control; the T/C (dose: 15.0 mg/kg/injection, schedule: Q01DX009 (ip), vehicle: saline) was 157 % of control; the T/C (dose: 16.0 mg/kg/injection, schedule: Q01DX001 (sc), vehicle: saline) is 106 % of control; the T/C (dose: 16.0 mg/kg/injection, schedule: Q01DX009 (sc), vehicle: saline) is 106 % of control; the T/C (dose: 30.0 mg/kg/injection, schedule: Q01DX009 (ip), vehicle: saline) is 208 % of control; the T/C (dose: 32.0 mg/kg/injection, schedule: Q01DX001 (oral), vehicle: saline) was 113 % of control. Moreover, the T/C (dose: 32.0 mg/kg/injection, schedule: Q01DX001 (sc), vehicle: saline) is 98 % of control; the T/C (dose: 32.0 mg/kg/injection, schedule: Q01DX009 (ip), vehicle: saline) was 102 % of control; the T/C (dose: 32.0 mg/kg/injection, schedule: Q01DX009 (oral), vehicle: saline) was 153 % of control; the T/C (dose: 32.0 mg/kg/injection, schedule: Q04DX003 (ip), vehicle: saline) was 165 % of control; the T/C (dose: 50.0 mg/kg/injection, schedule: Q01DX009 (ip), vehicle: saline) was 111 % of control; the T/C (dose: 60.0 mg/kg/injection, schedule: Q01DX009 (ip), vehicle: saline) is 92 % of control. Besides, the T/C (dose: 64.0 mg/kg/injection, schedule: Q01DX001 (oral), vehicle: saline) is 123 % of control; the T/C (dose: 64.0 mg/kg/injection, schedule: Q01DX001 (sc), vehicle: saline) was 113 % of control; the T/C (dose: 64.0 mg/kg/injection, schedule: Q01DX009 (oral), vehicle: saline) was 165 % of control; the T/C (dose: 64.0 mg/kg/injection, schedule: Q01DX009 (sc), vehicle: saline) was 160 % of control; the T/C (dose: 100.0 mg/kg/injection, schedule: Q01DX001 (ip), vehicle: saline) is 176 % of control; the T/C (dose: 120.0 mg/kg/injection, schedule: Q01DX001 (ip), vehicle: saline) is 182 % of control. The T/C (dose: 128.0 mg/kg/injection, schedule: Q01DX001 (sc), vehicle: saline) is 116 % of control; the T/C (dose: 180.0 mg/kg/injection, schedule: Q01DX001 (ip), vehicle: saline) is 168 % of control; the T/C (dose: 200.0 mg/kg/injection, schedule: Q01DX001 (ip), vehicle: saline) was 90 % of control; the T/C (dose: 256.0 mg/kg/injection, schedule: Q01DX001 (sc), vehicle: saline) was 151 % of control.

`CC(=O)CC(=O)Nc1nc2ccccc2s1`: the T/C by setting is: under setting [1], 92 % of control; under setting [2], 103 % of control; (dose: 400.0 mg/kg/injection, schedule: Q04DX003 (ip), vehicle: Klucel (hydroxypropylcellulose) (HPC)) 97 % of control.

Turning to `CCSC1C(OC(C)=O)C(C(CSC(C)=O)OC(C)=O)OC1n1cc(C)c(=O)[nH]c1=O` (centres undefined), the T/C (dose: 100.0 mg/kg/injection, schedule: Q01DX005 (ip), vehicle: saline) was 94 % of control and the T/C (dose: 200.0 mg/kg/injection, schedule: Q01DX005 (ip), vehicle: saline) was 98 % of control.

Take `O=Nc1ccc(O)c2ncccc12`: the T/C was 92 % of control under setting [1] and 99 % of control under setting [2].

Take `O=S(=O)(C1CC1)C1CC1`: the T/C reads like this: under setting [3], 94 % of control; under setting [4], 103 % of control; under setting [5], 94 % of control.

Regarding `C[C@]12CCC(=O)C=C1CC[C@@H]1[C@@H]2[C@@H](O)C[C@@]2(C)[C@H]1CC[C@]2(O)C(=O)COC(=O)CCC(=O)O`, the T/C by setting is: (dose: 50.0 mg/kg/injection, schedule: Q01DX001 (sc), vehicle: steriod suspending solution) 107 % of control; (dose: 100.0 mg/kg/injection, schedule: Q01DX001 (sc), vehicle: steriod suspending solution) 104 % of control; (dose: 100.0 mg/kg/injection, schedule: Q01DX009 (ip), vehicle: steriod suspending solution) 108 % of control; (dose: 100.0 mg/kg/injection, schedule: Q04DX003 (sc), vehicle: steriod suspending solution) 100 % of control; (dose: 200.0 mg/kg/injection, schedule: Q01DX001 (sc), vehicle: steriod suspending solution) 105 % of control; (dose: 200.0 mg/kg/injection, schedule: Q01DX009 (ip), vehicle: steriod suspending solution) 101 % of control. The T/C (dose: 200.0 mg/kg/injection, schedule: Q04DX003 (sc), vehicle: steriod suspending solution) is 96 % of control; the T/C (dose: 400.0 mg/kg/injection, schedule: Q01DX001 (sc), vehicle: steriod suspending solution) is 94 % of control; the T/C (dose: 400.0 mg/kg/injection, schedule: Q01DX009 (ip), vehicle: steriod suspending solution) is 103 % of control; the T/C (dose: 400.0 mg/kg/injection, schedule: Q04DX003 (sc), vehicle: steriod suspending solution) is 102 % of control.

Take `Cc1ccc(Cl)cc1NC(=O)N1CCN(c2ccccc2)CC1`: the T/C (dose: 100.0 mg/kg/injection, schedule: Q01DX001 (ip), vehicle: saline with Tween-80) was 95 % of control; the T/C (dose: 100.0 mg/kg/injection, schedule: Q01DX009 (ip), vehicle: saline with Tween-80) is 98 % of control and 103 % of control; the T/C under setting [3] is 120 % of control; the T/C under setting [6] is 101 % of control; the T/C (dose: 200.0 mg/kg/injection, schedule: Q01DX001 (ip), vehicle: saline with Tween-80) is 87 % of control; the T/C (dose: 200.0 mg/kg/injection, schedule: Q01DX009 (ip), vehicle: saline with Tween-80) is 100 % of control and 102 % of control. In addition, the T/C under setting [4] is 98 % of control and 86 % of control; the T/C under setting [7] is 90 % of control; the T/C (dose: 400.0 mg/kg/injection, schedule: Q01DX001 (ip), vehicle: saline with Tween-80) was 100 % of control; the T/C (dose: 400.0 mg/kg/injection, schedule: Q01DX009 (ip), vehicle: saline with Tween-80) was 92 % of control; the T/C under setting [5] was 95 % of control and 89 % of control; the T/C under setting [8] is 95 % of control.

Turning to `NNc1ccccc1Cl`, the T/C reads like this: (dose: 50.0 mg/kg/injection, schedule: Q01DX001 (ip), vehicle: carboxymethylcellulose (CMC)) 108 % of control; (dose: 75.0 mg/kg/injection, schedule: Q01DX001 (ip), vehicle: other) 102 % of control; (dose: 100.0 mg/kg/injection, schedule: Q01DX001 (ip), vehicle: carboxymethylcellulose (CMC)) 97 % of control; (dose: 150.0 mg/kg/injection, schedule: Q01DX001 (ip), vehicle: other) 93 % of control; (dose: 200.0 mg/kg/injection, schedule: Q01DX001 (ip), vehicle: carboxymethylcellulose (CMC)) 108 % of control.

Take `COc1ccc(C2N(C=O)CC34CC(=O)C=CC23C4)cc1O` (centres undefined): the T/C is 95 % of control under setting [6], 93 % of control under setting [7] and 95 % of control under setting [8].
